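Values below derive from 48-hour exposures of cells grown in 96-well plates, with endpoints linearly interpolated between the two concentrations bracketing the appropriate inhibition level. At the GI50, growth is halved.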 Activity calls are given as the source filed them. Rule as the data show it: active = GI50 up to about 1.1 µM and inactive = higher.
Key:
Experiment in all cases: inhibition of tumour cell growth, NCI panel, 48 h
OVCAR-4 = tested on: OVCAR-4
NCI/ADR-RES = tested on: NCI/ADR-RES
COLO 205 = tested on: COLO 205
SN12C = tested on: SN12C
SK-MEL-2 = tested on: SK-MEL-2
HCT-116 = tested on: HCT-116
SF-268 = tested on: SF-268
UACC-257 = tested on: UACC-257
MCF7 = tested on: MCF7
UO-31 = tested on: UO-31
SW-620 = tested on: SW-620
OVCAR-8 = tested on: OVCAR-8
OVCAR-5 = tested on: OVCAR-5
K562 = tested on: K562
NCI-H460 = tested on: NCI-H460
RPMI-8226 = tested on: RPMI-8226
IGROV-1 = tested on: IGROV-1
NCI-H522 = tested on: NCI-H522
HCT-15 = tested on: HCT-15
SR = tested on: SR

SMILES	GI50 (OVCAR-4)	GI50 (NCI/ADR-RES)	GI50 (COLO 205)	GI50 (SN12C)	GI50 (SK-MEL-2)	GI50 (HCT-116)	GI50 (SF-268)	GI50 (UACC-257)	GI50 (MCF7)	GI50 (UO-31)	GI50 (SW-620)	GI50 (OVCAR-8)	GI50 (OVCAR-5)	GI50 (K562)	GI50 (NCI-H460)	GI50 (RPMI-8226)	GI50 (IGROV-1)	GI50 (NCI-H522)	GI50 (HCT-15) [µM]	GI50 (SR)
CNC(=O)OCc1nc(SC)n(C)c1COC(=O)NC	129 µM (inactive)	204 µM (inactive)	146 µM (inactive)	103 µM (inactive)	119 µM (inactive)	167 µM (inactive)	119 µM (inactive)	103 µM (inactive)	132 µM (inactive)	185 µM (inactive)	172 µM (inactive)	182 µM (inactive)	170 µM (inactive)	147 µM (inactive)	59.6 µM (inactive)	117 µM (inactive)	175 µM (inactive)	74.1 µM (inactive)	171	71.4 µM (inactive)
COc1ccc(C2(CC(C)O)SCCCS2)cc1 (stereo not given)	> 100 µM (inactive)	> 100 µM (inactive)	> 100 µM (inactive)	> 100 µM (inactive)	> 100 µM (inactive)	> 100 µM (inactive)	> 100 µM (inactive)	> 100 µM (inactive)	> 100 µM (inactive)	> 100 µM (inactive)	> 100 µM (inactive)	> 100 µM (inactive)	> 100 µM (inactive)	> 100 µM (inactive)	> 100 µM (inactive)	> 100 µM (inactive)	> 100 µM (inactive)	> 100 µM (inactive)	> 100	> 100 µM (inactive)
NC1(c2cc3ccccc3s2)CCCC1	42.6 µM (inactive)	78.9 µM (inactive)	22.9 µM (inactive)	57.5 µM (inactive)	58.9 µM (inactive)	33.8 µM (inactive)	> 100 µM (inactive)	31 µM (inactive)	57.8 µM (inactive)	69.2 µM (inactive)	49.2 µM (inactive)	> 100 µM (inactive)	> 100 µM (inactive)	25.2 µM (inactive)	33.6 µM (inactive)	17.7 µM (inactive)	> 100 µM (inactive)	92.5 µM (inactive)	65.2	21.1 µM (inactive)
O=C1C(Cl)C(c2cc3cc(Br)ccc3nc2Cl)N1c1c(Cl)cccc1Cl (stereo not given)	5.46 µM (inactive)	12.3 µM (inactive)	> 25 µM (inactive)	16.6 µM (inactive)	> 25 µM (inactive)	9.12 µM (inactive)	11.7 µM (inactive)	16.5 µM (inactive)	6.76 µM (inactive)	1.3 µM (inactive)	11.6 µM (inactive)	10.8 µM (inactive)	> 25 µM (inactive)	7.01 µM (inactive)	> 25 µM (inactive)	6.78 µM (inactive)	6.9 µM (inactive)	5.37 µM (inactive)	13.4	4.78 µM (inactive)
Nc1nc(Cl)c2ncn(Cc3ccc(CCl)cc3)c2n1	15.6 µM (inactive)	3.33 µM (inactive)	3.64 µM (inactive)	12.2 µM (inactive)	11.5 µM (inactive)	2.76 µM (inactive)	1.88 µM (inactive)	12.5 µM (inactive)	2.81 µM (inactive)	11.9 µM (inactive)	3.37 µM (inactive)	5.13 µM (inactive)	3.29 µM (inactive)	3.61 µM (inactive)	4.25 µM (inactive)	3.83 µM (inactive)	9.23 µM (inactive)	10.7 µM (inactive)	4.95	3.02 µM (inactive)
N#Cc1c(C#N)c(SSc2c(C#N)c(C#N)c(N)n2-c2ccc(F)cc2)n(-c2ccc(F)cc2)c1N	2.77 µM (inactive)	24.3 µM (inactive)	1.95 µM (inactive)	16.6 µM (inactive)	22.4 µM (inactive)	1.9 µM (inactive)	17.5 µM (inactive)	5.93 µM (inactive)	2.9 µM (inactive)	2.06 µM (inactive)	2.25 µM (inactive)	6.55 µM (inactive)	17.1 µM (inactive)	1.76 µM (inactive)	20.2 µM (inactive)	2.37 µM (inactive)	16.7 µM (inactive)	1.7 µM (inactive)	2.03	0.59 µM (active)
N#CC1(C#N)C2=C(CCCC2)NC(c2ccc(Br)cc2)C1(C#N)C#N (stereo not given)	7.76 µM (inactive)	17.2 µM (inactive)	1.24 µM (inactive)	2.33 µM (inactive)	15.6 µM (inactive)	1.84 µM (inactive)	7.78 µM (inactive)	4.22 µM (inactive)	5.32 µM (inactive)	1.46 µM (inactive)	1.31 µM (inactive)	2.7 µM (inactive)	9.95 µM (inactive)	0.762 µM (active)	24.1 µM (inactive)	1.91 µM (inactive)	2.83 µM (inactive)	0.927 µM (active)	2.42	0.782 µM (active)
COc1cc(C(O)CCBr)c(OC)cc1C (stereo not given)	52.8 µM (inactive)	7.43 µM (inactive)	17.6 µM (inactive)	16.4 µM (inactive)	16 µM (inactive)	3.93 µM (inactive)	31.4 µM (inactive)	27.7 µM (inactive)	4.37 µM (inactive)	26.3 µM (inactive)	3.13 µM (inactive)	6.97 µM (inactive)	> 47.1 µM (inactive)	3.61 µM (inactive)	30.5 µM (inactive)	6.73 µM (inactive)	24.4 µM (inactive)	27.5 µM (inactive)	7.4	13 µM (inactive)
COc1ccc([C@H]2CC(=O)C[C@H](c3ccc(OC)cc3OC)C23C(=O)c2ccccc2C3=O)c(OC)c1	> 100 µM (inactive)	> 100 µM (inactive)	> 100 µM (inactive)	> 100 µM (inactive)	> 100 µM (inactive)	> 100 µM (inactive)	> 100 µM (inactive)	> 100 µM (inactive)	> 100 µM (inactive)	> 100 µM (inactive)	> 100 µM (inactive)	99.5 µM (inactive)	> 100 µM (inactive)	> 100 µM (inactive)	> 100 µM (inactive)	> 100 µM (inactive)	> 100 µM (inactive)	> 100 µM (inactive)	> 100	> 100 µM (inactive)
O=C(c1cccc(OCc2ccccc2)c1OCc1ccccc1)N1CCSC1=S	56.5 µM (inactive)	10.6 µM (inactive)	12 µM (inactive)	19.5 µM (inactive)	34.6 µM (inactive)	21.4 µM (inactive)	11.9 µM (inactive)	28.5 µM (inactive)	23 µM (inactive)	10.6 µM (inactive)	43.4 µM (inactive)	21.8 µM (inactive)	71.3 µM (inactive)	9.35 µM (inactive)	28 µM (inactive)	8.38 µM (inactive)	28.6 µM (inactive)	12.3 µM (inactive)	23.2	8.36 µM (inactive)
NC(=O)N/N=C1\CC2C3CC4C2C4C13 (stereo not given)	91 µM (inactive)	> 100 µM (inactive)	> 100 µM (inactive)	> 100 µM (inactive)	> 100 µM (inactive)	> 100 µM (inactive)	> 100 µM (inactive)	> 100 µM (inactive)	> 100 µM (inactive)	> 100 µM (inactive)	> 100 µM (inactive)	> 100 µM (inactive)	> 100 µM (inactive)	> 100 µM (inactive)	> 100 µM (inactive)	> 100 µM (inactive)	> 100 µM (inactive)	> 100 µM (inactive)	> 100	> 100 µM (inactive)
O=S(=O)(O)CCSSCCS(=O)(=O)O	> 1000 µM (inactive)	> 1000 µM (inactive)	> 1000 µM (inactive)	> 1000 µM (inactive)	> 1000 µM (inactive)	> 1000 µM (inactive)	> 1000 µM (inactive)	> 1000 µM (inactive)	> 1000 µM (inactive)	> 1000 µM (inactive)	> 1000 µM (inactive)	> 1000 µM (inactive)	> 1000 µM (inactive)	> 1000 µM (inactive)	> 1000 µM (inactive)	> 1000 µM (inactive)	> 1000 µM (inactive)	> 1000 µM (inactive)	> 1000	> 1000 µM (inactive)
O=C1/C(=C/c2cccc([N+](=O)[O-])c2)CCCc2ccccc21	13.7 µM (inactive)	9.51 µM (inactive)	18.8 µM (inactive)	17.3 µM (inactive)	11 µM (inactive)	5.4 µM (inactive)	4.82 µM (inactive)	16.6 µM (inactive)	3.92 µM (inactive)	16.4 µM (inactive)	4.76 µM (inactive)	12.7 µM (inactive)	13.3 µM (inactive)	3.27 µM (inactive)	18.5 µM (inactive)	11.4 µM (inactive)	11 µM (inactive)	4.74 µM (inactive)	10.6	2.86 µM (inactive)
O=S(=O)(N/C(=N\O)Nc1ccc(Cl)cc1)c1cc(S(=O)(=O)c2ccccc2)cs1	12.9 µM (inactive)	33.2 µM (inactive)	18.7 µM (inactive)	15.2 µM (inactive)	18.7 µM (inactive)	13.6 µM (inactive)	11.5 µM (inactive)	15.9 µM (inactive)	17.3 µM (inactive)	14.3 µM (inactive)	19.8 µM (inactive)	15.8 µM (inactive)	16.5 µM (inactive)	10.4 µM (inactive)	17.7 µM (inactive)	7.87 µM (inactive)	17.9 µM (inactive)	10.6 µM (inactive)	18.8	6.21 µM (inactive)
